Laboratory results from publication PMC5666381, “Rapid Assessment of the Toxicity of Fungal Compounds Using Luminescent Vibrio qinghaiensis sp. Q67” (Toxins, 2017).
Converted amounts (≈) assume the structure as drawn.

Columns and labels:
[1] = system: Vibrio qinghaiensis sp. Q67; assay: microbe, parasite or virus in culture; format: cell-based; details: for IC50, luminescence inhibition of standard mycotoxins / IC50: V. qinghaiensis sp. Q67, 15 min exposure, 22 °C, 0.8% NaCl; for IC50: Vibrio qinghaiensis, 0.25 h, read-out: IC50, luminescence inhibition of standard mycotoxins
V. fischeri [2] = details: ref Menz et al. (2013) [25]; cited from earlier work
Aliivibrio fischeri = details: cited from earlier work
V. fischeri [3] = details: cited from earlier work
[4] = system: Photobacterium phosphoreum; details: Photobacterium phosphoreum bioluminescence; cited from earlier work
[5] = system: human promyelocytic leukemia cell line HL60; details: HL60 cells; ref Nagashima and Nakagawa (2014) [13]; cited from earlier work
mice = details: ref Kouadio et al. (2013) [14]; cited from earlier work
kidney cells = details: cited from earlier work; for IC50: read-out: IC50, cytotoxic effects, ref Bouslimi et al. (2008) [29]; for IC50, cytotoxic effects: value in brackets after the µM value, ref Bouslimi et al. (2008) [29]

CCCC[C@@H](C)[C@@H](OC(=O)C[C@@H](CC(=O)O)C(=O)O)[C@H](C[C@@H](C)C[C@H](O)CCCC[C@@H](O)C[C@H](O)[C@H](C)N)OC(=O)C[C@@H](CC(=O)O)C(=O)O [Fumonisin B1]
IC50, luminescence inhibition of standard mycotoxins [1]: 14.88 ± 0.14 µg/mL

O.O.O.O.O.O.O.O=S(=O)([O-])[O-].[Zn+2] [ZnSO4, Zinc sulfate heptahydrate]
IC50, luminescence inhibition by ZnSO4 ([1]; V. qinghaiensis Q67, reference substrate, 15 min): 7.64 ± 0.42 mg/mL | IC50, inhibition of relative luminescence (V. fischeri [2]): 26.0 ± 3.3 mg/mL

aflatoxin B1
EC50 (Aliivibrio fischeri): 23.3 µg/mL | EC50 (V. fischeri [3]): 14.4 µg/mL

O=C1C=C2C(=CCOC2O)O1 (stereo not shown) [Patulin]
IC50 [1]: 13.3 ± 0.14 µg/mL (≈ 86.4 µM)

C[C@H]1CCCC(=O)CCC/C=C/c2cc(O)cc(O)c2C(=O)O1 [Zearalenone]
IC50 [1]: 9.71 ± 0.17 µg/mL (≈ 30.5 µM) | EC50 for toxic effects [4]: 13.51 µg/mL

CC1=C[C@H]2O[C@@H]3[C@H](O)C[C@](C)([C@@]2(CO)[C@H](O)C1=O)[C@]31CO1 [Deoxynivalenol]
IC50, luminescence inhibition of standard mycotoxins [1]: 30.74 ± 0.33 µg/mL | IC50, cell proliferation [5]: 0.36 µg/mL (≈ 1.21 µM) | no-observed-adverse-effect level (NOAEL) (mice): lower than 45 µg kg^−1 day^−1

CC1=C2C(=CO[C@H](C)[C@H]2C)C(O)=C(C(=O)O)C1=O [Citrinin]
IC50 [1]: 12.23 ± 0.1 µg/mL (≈ 48.9 µM) | EC50 for toxic effects [4]: 20.05 µg/mL | IC50 (kidney cells): 220 µM | IC50, cytotoxic effects (kidney cells): 55.06 µg/mL (≈ 220 µM)

C[C@@H]1Cc2c(Cl)cc(C(=O)N[C@@H](Cc3ccccc3)C(=O)O)c(O)c2C(=O)O1 [Ochratoxin A]
IC50 [1]: 11.02 ± 0.1 µg/mL (≈ 27.3 µM) | EC50 for toxic effects [4]: 16.88 µg/mL | IC50 (kidney cells): 50 µM | IC50, cytotoxic effects (kidney cells): 20.15 µg/mL (≈ 49.9 µM)
